# Assay results reported in patent US20150216870A1, “Combination of PI3K Inhibitor and C-Met Inhibitor” (Novartis AG, priority 2012, published 2015).
# Key:
# [1] = system: EBC-1; experiment: Cell viability (CellTiterGlo) combination dose matrix in EBC-1; format: cell-based, human; conditions: combination with c-Met inhibitor, 72 h, excluding highest concentration, 0 no inhibition, 1 = 100% inhibition/stasis, 2 = cell death
# Protocol: (§1) Compound stocks of both compounds are individually prepared in DMSO. Compounds are serially diluted using a Tecan dispenser to cover a ˜1000× range of concentrations. […] Both single agent and combinations are tested at multiple concentrations, along with controls and one self-cross.
# (§2) The cell lines used in this study are purchased from American Type Cell Collection, including human non small cell lung cancer cell lines EBC-1 (which bears c-Met amplification), NCI-H1993 (which bears c-MET amplified), NCI-H1648 (which bears c-Met amplification), NCI-H1573 (which bears c-Met amplification and KRAS mutation) and HCC2935 (EGFR mutation). All cell lines are maintained in their respective culture medium as specified by the provider.
# (§3) For the assessment of combination effects, cells are seeded into 384-well plates at 500 cells/well and incubated overnight. […]
# (§4) Effects of single agents as well as their combination on cell viability is assessed after 72 hours of incubation at 37° C./5% CO2 by quantification of cellular ATP levels (CellTiterGlo, Promega) using 25 μL reagent/well and n=2 replicate plates per condition. The number/viability of cells at time of compound addition is likewise assessed and used to estimate the population doubling time of a cell line.
# (§5) For untreated and treated levels U and T, inhibition is calculated using the formula I=1−T/U, which ranges from 0% to 100% for complete inhibition. […]
# (§6) The Loewe expectation [Loewe S., Ergebn Physiol 27: 47-187 (1928)) is calculated at each dose pair CX,Y by finding the inhibition ILoewe such that (CX/ICX)+(CY/ICY)=1, and ICX,Y are the effective concentrations at ILoewe for the fitted single agent curves, using numerical optimization [Berenbaum M C, J Theor Biol 114: 413-431 (1985)]. The “synergy score” S is calculated by averaging the difference between Idata and ILoewe across all the tested combination dose points, excluding the highest concentration point in the dose matrix, which is most likely to be dominated by drug off-target effects. […]
# [2] = system: NCI-H1993; experiment: Cell viability (CellTiterGlo) combination dose matrix in NCI-H1993; format: cell-based, human; conditions: combination with c-Met inhibitor, 72 h, excluding highest concentration
# Protocol: as §1, §2, §3, §4, §5, §6
# [3] = system: NCI-H1648; experiment: Cell viability (CellTiterGlo) combination dose matrix in NCI-H1648; format: cell-based, human; conditions: combination with c-Met inhibitor, 72 h, excluding highest concentration
# Protocol: as §1, §2, §3, §4, §5, §6
# [4] = system: NCI-H1573; experiment: Cell viability (CellTiterGlo) combination dose matrix in NCI-H1573; format: cell-based, human; conditions: combination with c-Met inhibitor, 72 h, excluding highest concentration
# Protocol: as §1, §2, §3, §4, §5, §6
# [5] = system: HCC2935; experiment: Cell viability (CellTiterGlo) combination dose matrix in HCC2935; format: cell-based, human; conditions: combination with c-Met inhibitor, 72 h, excluding highest concentration
# Protocol: as §1, §2, §3, §4, §5, §6
# [6] = system: U-87 MG; experiment: CellTiter-Glo cell viability dose matrix in U-87 MG glioblastoma cells; format: cell-based, human; conditions: U87 MG (PTEN mutant, HGF expressing)
# Protocol: (§7) The PI3K inhibitor COMPOUND C and the c-MET receptor tyrosine kinase inhibitor 2-fluoro-N-methyl-4-[7-quinolin-6-yl-methyl)-imidazo[1,2-b][1,2,4]triazin-2yl]benzamide are evaluated in combination in glioblastoma tumor models. COMPOUND C (10 mM) and 2-fluoro-N-methyl-4-[7-quinolin-6-yl-methyl)-imidazo[1,2-b][1,2,4]triazin-2yl]benzamide (10 mM) are dissolved in DMSO, and are stored in aliquots at −20° C.
# (§8) Human Glioblastoma cell lines, U-87 MG (PTEN mutant and HGF expressing line), H4 (PTEN mutant and HGF expressing line), A172 (PTEN mutant line with low HGF expression level) and LN-229 (PTEN wildtype and HGF low) are purchased from American Type Cell Collection and are maintained in a humidified incubator at 37° C. in 5% CO2 in recommended media. All four cell lines express detected MET at the mRNA level.
# (§9) The cells are passaged twice a week and the medium is changed every 2 to 3 days. […]
# (§10) Cell viability is determined by measuring cellular ATP content using the CellTiter-Glo® (CTG) luminescent cell viability assay (Promega). […] An equal volume of the CTG reagents is added to each well at the end of the compound treatment and luminescence is recorded on an Envision plate reader (Perkin Elmer). Reduced and enhanced luminescent signal values (responses) are calculated relative to untreated (control) cells. […]
# [7] = system: H4; experiment: CellTiter-Glo cell viability dose matrix in H4 glioblastoma cells; format: cell-based, human; conditions: H4 (PTEN mutant, HGF expressing)
# Protocol: as §7, §8, §9, §10
# [8] = system: A172; experiment: CellTiter-Glo cell viability dose matrix in A172 glioblastoma cells; format: cell-based, human; conditions: A172 (PTEN mutant, low HGF)
# Protocol: as §7, §8, §9, §10
# [9] = system: LN-229; experiment: CellTiter-Glo cell viability dose matrix in LN-229 glioblastoma cells; format: cell-based, human; conditions: LN229 (PTEN wildtype, HGF low)
# Protocol: as §7, §8, §9, §10
# [10] = system: U-87 MG human glioblastoma xenograft; experiment: U-87 MG xenograft tumor growth inhibition and tumor growth delay; format: in vivo, nude mice; conditions: for T/C or T/T0: D13
# Protocol: In this experiment, the U-87 MG human glioblastoma xenograft model is used to assess the anti-tumor efficacy of the PI3K inhibitor COMPOUND C and c-Met inhibitor 2-fluoro-N-methyl-4-[7-quinolin-6-yl-methyl)-imidazo[1,2-b][1,2,4]triazin-2yl]benzamide as single agents or in combination. U-87 MG tumor cells obtained from the National Cancer Institute are reported to be homozygous for likely oncogenic variants of CDKN2A, CDKN2C, CDKN2a, and PTEN; no mutations are detected in MET, PIK3CA, or 58 other genes that are frequently altered in neoplastic cells; and HGF expressing.
# Mice are treated daily for 21 days with 17.7 and 35.3 mg/kg of the c-Met inhibitor and 32.7 mg/kg COMPOUND C monotherapies, and with the c-Met inhibitor/COMPOUND C dual therapy at 17.7:32.7. An c-Met inhibitor/COMPOUND C combination at the 58.8:5.4 mg/kg dose ratio was included in the study. The control mice received both vehicles, and a standard preclinical temozolomide regimen monitored tumor model performance. The oral treatments began on Day 1 (D1) in nude mice with established subcutaneous tumors. Each animal was euthanized when its tumor reached the predetermined 2000 mm3 endpoint volume, or on D60, whichever came first. The study was terminated on D51. […] Overall efficacy was determined from the times required for tumors to progress to the volume endpoint, and from D51 survival and regression rates. This report describes the methods and results of the U87MG-e326 tumor growth delay experiment.
# The animals are fed ad libitum water (reverse osmosis, 1 ppm CI) and NIH 31 Modified and Irradiated Lab Diet® consisting of 18.0% crude protein, 5.0% crude fat, and 5.0% crude fiber. The mice are housed on irradiated Enrich-O'cobs™ Laboratory Animal Bedding in static microisolators on a 12-hour light cycle at 20-22° C. (68-72° F.) and 40-60% humidity.
# The U-87 MG tumor line is obtained from the American Type Culture Collection and maintained by serial engraftment in nude mice. A tumor fragment (1 mm^3) is implanted subcutaneously into the right flank of each test mouse. Tumors are calipered in two dimensions to monitor growth as their mean volume approached the desired 100-150 mm^3 range. Tumor size, in mm^3, was calculated from: Tumor Volume=(width^2×length)/2, where width and length (in mm) are measurements of the tumor. Tumor weight can be estimated with the assumption that 1 mg is equivalent to 1 mm^3 of tumor volume. Fourteen days after tumor cell implantation, on D1 of the study, mice with individual tumor volumes of 63-196 mm^3 are sorted into seven groups, with group mean tumor volumes of 122-127 mm^3.
# The c-Met inhibitor 2-fluoro-N-methyl-4-[7-quinolin-6-yl-methyl)-imidazo[1,2-b][1,2,4]triazin-2yl]benzamide (di-HCl salt, 84.98% free base) is stored at 4° C. and is added to deionized water at 2× the final concentration and sonicated until dissolved. An equal volume of 0.5% methylcellulose and 0.1% Tween® 80 in deionized water is added to provide a 5.884 mg/mL dosing solution in 0.25% methylcellulose and 0.05% Tween® 80 in deionized water (Vehicle 1). Portions of this solution are diluted with Vehicle 1 to provide 3.53 and 1.765 mg/mL dosing solutions.
# COMPOUND C (HCl salt, 91.85% free base) is stored at −20° C. and is added to 1% Tween® 80 in deionized water and sonicated to obtain a uniform suspension at 2× the final concentration. […] The 0.544 mg/mL dosing suspension is obtained by diluting a portion of the first suspension with Vehicle 2.
# [11] = COMPOUND C 32.7 mg/kg (30 mg/kg free base) p.o. qd x21
smiles,measurement,setting,value
"Nc1cc(C(F)(F)F)c(-c2cc(N3CCOCC3)nc(N3CCOCC3)n2)cn1 [COMPOUND C, 5-(2,6-di-morpholin-4-yl-pyrimidin-4-yl)-4-trifluoromethyl-pyridin-2-ylamine]","MaxGI (GImax, combination effectiveness)",[1],1.83
same,"MaxGI (GImax, combination effectiveness)",[2],1.67
same,"MaxGI (GImax, combination effectiveness)",[3],1.78
same,"MaxGI (GImax, combination effectiveness)",[4],1.54
same,"MaxGI (GImax, combination effectiveness)",[5],1.37
same,anti-proliferative activity (single agent),[6],concentration dependent anti-proliferative activity
same,anti-proliferative activity (single agent),[7],concentration dependent anti-proliferative activity
same,anti-proliferative activity (single agent),[8],concentration dependent anti-proliferative activity
same,anti-proliferative activity (single agent),[9],less active
same,increase of median TTE,[10]; COMPOUND C 30 mg/kg free base p.o. qd x21,9.3 days
same,% TGD,[10]; [11],79%
same,T/C or T/T0,[10]; [11],31%
same,T/C or T/T0,"[10]; COMPOUND C 32.7 mg/kg (30 mg/kg free base) p.o. qd x21, listed as CMPD. C",31%
same,Median TTE,"[10]; COMPOUND C 32.7 mg/kg (30 mg/kg free base) p.o. qd x21, endpoint 2000 mm3",21.0 days
same,Regress.,"[10]; COMPOUND C 32.7 mg/kg p.o. qd x21, number of animals",0
